Like-named read-outs stand apart in the source and are kept apart here.
Key:
[1] = system: SARS-CoV-2; assay type: cell-based
[2] = system: Vero E6 cells; conditions: 48 hours, CellTiterGlo
[3] = system: SARS-CoV-2; assay type: cell-based; conditions: compound 10 and 31.6 μM, MOI 0.01, 72 hours
[4] = system: Vero E6 cells
[5] = 1 hour pre-treatment, 1 nM-100 μM, MOI 0.05, 48 hours, Vero E6 cells

Compound	effect on Viral Load (viral burden) [1, 5]	effect on Host Cell Number (cell viability) [4]	further results
O=c1cc(-c2ccc(O)c(-c3c(O)cc(O)c4c(=O)cc(-c5ccc(O)cc5)oc34)c2)oc2cc(O)cc(O)c12 [Amentoflavone]	reduction in Viral Load levels		
COc1ccc(-c2cc(=O)c3c(O)cc(O)cc3o2)cc1-c1c(O)cc(O)c2c(=O)cc(-c3ccc(O)cc3)oc12 [Bilobetin]	reduction in Viral Load levels		
C[C@@H]1CC[C@@]2(OC1)O[C@H]1C[C@H]3[C@@H]4CC=C5C[C@@H](O[C@@H]6O[C@H](CO)[C@@H](O[C@@H]7O[C@@H](C)[C@H](O)[C@@H](O)[C@H]7O)[C@H](O)[C@H]6O[C@@H]6O[C@@H](C)[C@H](O)[C@@H](O)[C@H]6O)CC[C@]5(C)[C@H]4CC[C@]3(C)[C@H]1[C@@H]2C [Dioscin]	reduction in Viral Load levels		concentrations that did not significantly impact Vero E6 cell viability compared to the DMSO treated control [2]: less than or equal to 0.1 μM; toxicity observed at (and above) concentration [2]: ≥ 1 µM
O=c1oc2c(O)c(O)cc3c(=O)oc4c(O)c(O)cc1c4c23 [Ellagic Acid]			Remdesivir concentration at which the compound synergized [3]: ≤ 0.625 µM; combined effect with Remdesivir on host cell viability [3]: synergized
CN1C[C@@H](C(=O)N[C@]2(C)O[C@@]3(O)[C@@H]4CCCN4C(=O)[C@H](Cc4ccccc4)N3C2=O)C=C2c3cccc4[nH]cc(c34)C[C@H]21 [Ergotamine]	reduction in Viral Load levels		
COc1cc(O)c2c(=O)cc(-c3ccc(OC)c(-c4c(O)cc(O)c5c(=O)cc(-c6ccc(O)cc6)oc45)c3)oc2c1 [Ginkgetin]	reduction in Viral Load levels		
Oc1cc(O)c2c(c1)O[C@H](c1ccc(O)c(O)c1)[C@H](O)[C@H]2c1c(O)cc(O)c2c1O[C@H](c1ccc(O)c(O)c1)[C@H](O)C2 [Procyanidin B2]	did not show an effect	did not show an effect	
CC1OC(OCC2OC(Oc3c(-c4ccc(O)cc4)oc4cc(OC5OC(C)C(O)C(O)C5O)cc(O)c4c3=O)C(O)C(O)C2O)C(O)C(O)C1O (stereo not shown) [Robinin]	did not show an effect	did not show an effect	
C[C@@H]1O[C@@H](OC[C@H]2O[C@@H](Oc3c(-c4ccc(O)c(O)c4)oc4cc(O)cc(O)c4c3=O)[C@H](O)[C@@H](O)[C@@H]2O)[C@H](O)[C@H](O)[C@H]1O [Rutin]		did not show an effect	
O=C(O[C@H]1Cc2c(O)cc(O)cc2O[C@H]1c1cc(O)c(O)c2c(=O)c(O)cc([C@H]3Oc4cc(O)cc(O)c4C[C@H]3O)cc12)c1cc(O)c(O)c(O)c1 [Theaflavin-3-gallate, Theaflavin 3-gallate]	reduction in Viral Load levels		
O=c1c(O)cc([C@H]2Oc3cc(O)cc(O)c3C[C@H]2O)cc2c([C@H]3Oc4cc(O)cc(O)c4C[C@H]3O)cc(O)c(O)c12 [Theaflavin]	did not show an effect	did not show an effect	
O=C(/C=C/c1ccc(O)cc1)OC[C@H]1O[C@@H](Oc2c(-c3ccc(O)cc3)oc3cc(O)cc(O)c3c2=O)[C@H](O)[C@@H](O)[C@@H]1O [Tiliroside]		did not show an effect	concentrations that only mildly impacted Vero E6 cell viability compared to the DMSO treated control [2]: less than or equal to 10 μM; toxicity observed at (and above) concentration [2]: ≥ 100 µM
O=c1oc2cc(O)ccc2c2ccc(O)cc12 [Urolithin A]			Remdesivir concentration at which the compound synergized [3]: ≤ 1.25 µM; combined effect with Remdesivir on host cell viability [3]: synergized
Hypericin	reduction in Viral Load levels		
Miquelianin/Quercetin 3-glucuronide			effect on Viral Load (viral burden) [1]: did not show an effect
Punicalagin	reduction in Viral Load levels		

Reference: patent US20230233514A1, “ANTIVIRAL COMPOUNDS AND METHODS OF USING THE SAME” (priority 2020, published 2023)
